Test results: PubChem BioAssay (NCI)
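Five concentrations, 48 hours, 96-well plates. TGI: total growth inhibition.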

Columns and labels:
Experiment in all cases: growth of human tumour cells (NCI), 48 h
HCC-2998 colon = tested on: HCC-2998 colon
RPMI-8226 leukemia = tested on: RPMI-8226 leukemia
CCRF-CEM leukemia = tested on: CCRF-CEM leukemia
M19-MEL melanoma = tested on: M19-MEL melanoma
HOP-62 NSCLC = tested on: HOP-62 NSCLC
HL-60(TB) leukemia = tested on: HL-60(TB) leukemia
NCI-H460 lung = tested on: NCI-H460 lung
M14 melanoma = tested on: M14 melanoma
SR leukemia = tested on: SR leukemia
KM20L2 colon = tested on: KM20L2 colon
HOP-92 NSCLC = tested on: HOP-92 NSCLC
SF-295 CNS = tested on: SF-295 CNS
ACHN renal = tested on: ACHN renal
KM12 colon = tested on: KM12 colon
CAKI-1 renal = tested on: CAKI-1 renal
UACC-62 melanoma = tested on: UACC-62 melanoma
UO-31 renal = tested on: UO-31 renal
NCI-H226 lung = tested on: NCI-H226 lung
UACC-257 melanoma = tested on: UACC-257 melanoma
SK-MEL-2 melanoma = tested on: SK-MEL-2 melanoma
DMS 114 small cell lung = tested on: DMS 114 small cell lung
HCT-116 colon = tested on: HCT-116 colon
LXFL 529 NSCLC = tested on: LXFL 529 NSCLC
RXF 393 renal = tested on: RXF 393 renal
SW-620 colon = tested on: SW-620 colon
TK-10 renal = tested on: TK-10 renal
SNB-75 CNS = tested on: SNB-75 CNS
A549 NSCLC = tested on: A549 NSCLC
MOLT-4 leukemia = tested on: MOLT-4 leukemia
IGROV1 ovarian = tested on: IGROV1 ovarian
K-562 leukemia = tested on: K-562 leukemia
SNB-19 CNS = tested on: SNB-19 CNS
OVCAR-4 ovarian = tested on: OVCAR-4 ovarian
HT29 colon = tested on: HT29 colon
OVCAR-8 ovarian = tested on: OVCAR-8 ovarian
EKVX NSCLC = tested on: EKVX NSCLC
SK-MEL-28 melanoma = tested on: SK-MEL-28 melanoma
NCI-H23 lung = tested on: NCI-H23 lung
COLO 205 colon = tested on: COLO 205 colon
SK-MEL-5 melanoma = tested on: SK-MEL-5 melanoma
SF-268 CNS = tested on: SF-268 CNS
OVCAR-3 ovarian = tested on: OVCAR-3 ovarian
DLD-1 colon = tested on: DLD-1 colon
SF-539 CNS = tested on: SF-539 CNS

Measured: TGI

COC(=O)C1=C(C)N2CCOC2CC1c1ccccc1 (centres undefined)
> 100 µM: HCC-2998 colon | RPMI-8226 leukemia | CCRF-CEM leukemia | M19-MEL melanoma | HOP-62 NSCLC | HL-60(TB) leukemia | NCI-H460 lung | M14 melanoma | SR leukemia | KM20L2 colon | HOP-92 NSCLC | SF-295 CNS | ACHN renal | KM12 colon | CAKI-1 renal | UACC-62 melanoma | UO-31 renal | NCI-H226 lung | UACC-257 melanoma | SK-MEL-2 melanoma | DMS 114 small cell lung | HCT-116 colon | LXFL 529 NSCLC | RXF 393 renal | SW-620 colon | TK-10 renal | SNB-75 CNS | A549 NSCLC | MOLT-4 leukemia | IGROV1 ovarian | K-562 leukemia | SNB-19 CNS | OVCAR-4 ovarian | HT29 colon | OVCAR-8 ovarian | EKVX NSCLC | SK-MEL-28 melanoma | NCI-H23 lung | COLO 205 colon | SK-MEL-5 melanoma | SF-268 CNS | OVCAR-3 ovarian | DLD-1 colon | SF-539 CNS
